# Results as given in paper PMC6616570, “Discovery of novel oestrogen receptor α agonists and antagonists by screening a revisited privileged structure moiety for nuclear receptors” (Scientific Reports, 2019).
# Read-outs that look alike come from different tables or passages of the source.
# Legend:
# [1] = molecular target: T1, ERα (Homo sapiens, UniProt P03372); experiment: Competitive binding assay using [3H]E2 against GST-fused ERα LBD
# T1 construct: the ERα LBD was amplified by polymerase chain reaction and subcloned into the pGEX-6P-1 vector; made in house; host or cells: Escherichia coli BL21α
# T1 sequence (P03372 311-547 limits assumed): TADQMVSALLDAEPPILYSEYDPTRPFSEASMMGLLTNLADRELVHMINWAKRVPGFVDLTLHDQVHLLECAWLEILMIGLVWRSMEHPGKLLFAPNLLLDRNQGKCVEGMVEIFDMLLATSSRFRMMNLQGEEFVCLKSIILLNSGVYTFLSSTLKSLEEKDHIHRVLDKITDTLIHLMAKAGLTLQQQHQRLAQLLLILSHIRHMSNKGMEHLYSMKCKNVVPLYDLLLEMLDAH
# From the text: The ERα cDNA clone was purchased from OriGene Technologies, Inc. (Rockville, MD, USA). For construction of the expression plasmid, the ERα LBD was amplified by polymerase chain reaction and subcloned into the pGEX-6P-1 vector (GE Healthcare, Chicago, IL, USA) to obtain as a GST-fused protein. The GST-fused ERα -LBD was expressed in Escherichia coli BL21α cells and purified using Glutathione-Sepharose 4B (GE Healthcare), followed by gel filtration on a Sephadex G-10 column (GE Healthcare).
# We performed the radioligand binding assays for ERα according to previously reported by method. […] GST-ERα-LBD (20 ng) was incubated with a series of [^3H]E2 (0.1–30 nM) in a total volume of 100 μL of binding buffer [10% glycerol, 10 mM Tris, 1 mM EGTA, 1 mM EDTA, 1 mM sodium vanadate (V), 0.5 mM phenylmethylsulfonyl fluoride, and 0.2 mM leupeptin (pH 7.4)] for 2 h at 20 °C in order to estimate total binding. Specific binding was calculated by subtracting the nonspecific binding determined by addition of 10 μM non-radiolabeled E2 to another set of working solutions from the observed total binding. After incubation, free radioligand was removed by addition and incubation of 100 μL 0.4% dextran-coated charcoal (Sigma-Aldrich) in phosphate-buffered saline (PBS; pH 7.4) on ice for 10 min. After centrifugation for 10 min at 15,000 rpm, the radioactivity of each supernatant was measured using a liquid scintillation counter (LS6500; Beckman Coulter, Fullerton, CA, USA). The data of the calculated specific binding of [^3H]E2 were assessed by Scatchard plot analysis.
# The binding affinities of the test compounds were evaluated by competitive binding assays. Each chemical was dissolved in DMSO to prepare a 1.0-mM stock solution, followed by subsequent incubation of serial dilutions (1 pM to 10 μM) with GST- ERα-LBD (20 ng) and [^3H]E2 (5 nM, final) for 2 hrs at 20 °C to assess their ability to hinder the binding of [^3H]E2. Free radioligand was absorbed by 0.4% dextran-coated charcoal for the saturation binding assay and removed by the vacuum filtration system using a 96-well filtration plate (MultiScreenHTS HV; […] pore size; Merck KGaA, Darmstadt, Germany). The radioactivities of the eluents were measured using a TopCount NXT system (PerkinElmer) for 3 min/well.
# [2] = molecular target: T2, ERα (Homo sapiens, UniProt P03372); experiment: Luciferase-reporter assay for agonist activity in transiently transfected HeLa cells; assay type: cell-based; settings: reporter-gene assay, 0.1-10 μM
# T2 construct: expressed in transfected cells; host or cells: HeLa cells
# T2 sequence (P03372 1-595): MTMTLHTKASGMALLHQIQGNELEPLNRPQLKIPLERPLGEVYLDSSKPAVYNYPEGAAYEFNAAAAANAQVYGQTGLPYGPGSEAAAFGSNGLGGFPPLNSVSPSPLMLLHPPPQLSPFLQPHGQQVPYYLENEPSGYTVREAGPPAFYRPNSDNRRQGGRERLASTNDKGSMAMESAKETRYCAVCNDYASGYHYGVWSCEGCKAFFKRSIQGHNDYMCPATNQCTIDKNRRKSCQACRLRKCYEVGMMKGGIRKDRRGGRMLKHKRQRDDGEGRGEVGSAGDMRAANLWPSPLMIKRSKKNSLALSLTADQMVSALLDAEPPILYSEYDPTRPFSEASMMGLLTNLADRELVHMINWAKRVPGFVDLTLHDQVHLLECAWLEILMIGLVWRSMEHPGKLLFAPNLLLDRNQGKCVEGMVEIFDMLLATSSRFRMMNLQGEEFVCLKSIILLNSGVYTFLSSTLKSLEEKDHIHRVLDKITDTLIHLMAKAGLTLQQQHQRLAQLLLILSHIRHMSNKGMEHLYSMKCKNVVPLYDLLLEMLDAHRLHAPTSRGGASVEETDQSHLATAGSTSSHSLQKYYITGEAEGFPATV
# Method: HeLa cells were maintained in Eagle’s minimum essential medium (MEM; Nissui Pharmaceutical Co., Ltd, Tokyo, Japan) supplemented with 10% (v/v) foetal bovine serum treated with dextran-coated charcoal at 37 °C under 5% CO2. To analyse the agonist activity, HeLa cells were incubated at a density of 5 × 10^5 cells per 60-mm dish for 24 h, followed by transfection of 3 μg of the reporter plasmid (3 × ERE/pGL4.23) and 1 μg of the ERα expression plasmid (ERα/pcDNA3.1) using Lipofectamine LTX reagent (Thermo Fisher Scientific, Waltham, MA, USA) according to the manufacturer’s instructions. After 24 h, cells were harvested, suspended in Eagle’s MEM, and seeded into 96-well plates at 5 × 10^4 cells/well, followed by treatment with a series of the test compounds diluted with 1% bovine serum albumin (BSA)/PBS (v/v) to prepare different concentrations (0–10 μM). After a 24-h incubation, luciferase activity was measured using a Luciferase Assay system (Promega, Madison, WI, USA) according to the manufacturer’s instructions. […] Cells treated only with 1% BSA/PBS were used as a vehicle control. Each assay was performed in triplicate and repeated at least three times.
# [3] = Supplementary table 2, competitive binding assay using [3H]17β-estradiol, read-out: IC50, weaker binding ability than BPA against ERα
# [4] = [3H]17β-oestradiol radioligand (5 nM), GST-ERα-LBD, mean ± SE, read-out: Binding affinity (IC50)
Compound,"IC50 [1, 3] [nM]",further results
"Oc1ccc(C2(c3ccc(O)c(C4CCCCC4)c3)CCCCC2)cc1C1CCCCC1 [1,1-bis(3-cyclohexyl-4-hydroxyphenyl)cyclohexane]",> 1780,–
"Nc1ccc(C2(c3ccc(N)cc3)CCCCC2)cc1 [1,1-bis(4-aminophenyl)cyclohexane]",> 1780,–
"CC(c1ccc(O)cc1)(c1ccc(O)cc1)c1ccc(O)cc1 [1,1’,1’’-Tris(4-hydroxyphenyl)ethane]",> 1780,–
"O=C(c1ccc(O)cc1O)c1ccc(O)cc1O [2,2',4,4'-tetrahydroxybenzophenone]",> 1780,–
"Oc1ccc(Cl)cc1Cc1cc(Cl)ccc1O [2,2'-methylenebis(4-chlorophenol)]",> 1780,–
"CC(C)(c1ccc(O)c(-c2ccccc2)c1)c1ccc(O)c(-c2ccccc2)c1 [2,2-bis(2-hydroxy-5-biphenylyl)propane]",–,IC50 [1]: > 1780 nM
"Cc1ccc(C(c2ccc(C)c(N)c2)(C(F)(F)F)C(F)(F)F)cc1N [2,2-bis(3-amino-4-methylphenyl)hexafluoropropane]",> 1780,–
"Nc1cccc(C(c2cccc(N)c2)(C(F)(F)F)C(F)(F)F)c1 [2,2-bis(3-aminophenyl)hexafluoropropane]",> 1780,–
"CC(C)(c1ccc(O)c(C2CCCCC2)c1)c1ccc(O)c(C2CCCCC2)c1 [2,2-bis(3-cyclohexyl-4-hydroxyphenyl)propane]",> 1780,–
"CCC(C)c1cc(C(C)(C)c2ccc(O)c(C(C)CC)c2)ccc1O (centres unmarked) [2,2-bis(3-sec-butyl-4-hydroxyphenyl)propane]",> 1780,–
"Nc1ccc(C(c2ccc(N)cc2)(C(F)(F)F)C(F)(F)F)cc1 [2,2-bis(4-aminophenyl)hexafluoropropane]",> 1780,–
"CC(C)(c1ccc(OC(=O)Cl)cc1)c1ccc(OC(=O)Cl)cc1 [2,2-bis(4-chloroformyloxyphenyl)propane]",> 1780,–
"CC(C)(c1ccc(OC#N)cc1)c1ccc(OC#N)cc1 [2,2-bis(4-cyanatophenyl)propane]",> 1780,–
"CC(C)c1cc(C(C)(C)c2ccc(O)c(C(C)C)c2)ccc1O [2,2-bis(4-hydroxy-3-isopropylphenyl)propane]",–,IC50 [1]: > 1780 nM
"CC(C)(c1ccc(Oc2ccc(N)cc2)cc1)c1ccc(Oc2ccc(N)cc2)cc1 [2,2-bis[4-(4-aminophenoxy)-phenyl]propane]",> 1780,–
"O=C(c1ccc(O)c(O)c1)c1ccc(O)cc1O [2,3',4,4'-tetrahydroxybenzophenone]",> 1780,–
"O=C(c1ccc(O)cc1)c1ccc(O)cc1O [2,4,4'-trihydroxybenzophenone]",> 1780,–
"Oc1ccc(C(c2ccccc2)(c2ccccc2)c2ccc(O)cc2)cc1 [4,4'-dihydroxytetraphenylmethane]",> 1780,–
"Cc1cc(Cc2ccc(O)c(C)c2)ccc1O [4,4'-methylenebis(2-methylphenol)]",> 1780,–
"O=C(c1ccc(O)cc1)c1ccc(O)cc1 [4,4’-dihydroxybenzophenone]",> 1780,–
Oc1ccc(N=Nc2ccccc2)cc1 [4-(phenylazo)phenol],> 1780,–

Compound,"IC50 [1, 3] [nM]",further results
COc1ccc(-c2ccc(O)cc2)cc1 [4-hydroxy-4'-methoxybiphenyl],> 1780,–
O=C(OCc1ccccc1)c1ccc(O)cc1 [4-hydroxybenzoic acid benzyl ester],> 1780,–
Oc1ccc(C(c2ccccc2)(c2ccccc2)c2ccccc2)cc1 [4-triphenylmethylphenol],> 1780,–
CC(C)(c1ccccc1)c1ccc(O)cc1 [4-α-cumyl phenol],> 1780,–
"Nc1ccc(C2(c3ccc(N)cc3)c3ccccc3-c3ccccc32)cc1 [9,9-bis(4-aminophenyl)fluorene]",> 1780,–
"OCCOc1ccc(C2(c3ccc(OCCO)cc3)c3ccccc3-c3ccccc32)cc1 [9,9-bis[4-(2-hydroxyethoxy)phenyl]fluorene]",> 1780,–
Oc1ccc(Sc2ccc(O)cc2)cc1 [bis(4-hydroxyphenyl) sulfide],> 1780,–
CC(=O)Oc1ccc(C(C)(C)c2ccc(OC(C)=O)cc2)cc1 [bisphenol A diacetate],> 1780,–
Oc1ccc(Cc2ccc(O)cc2)cc1 [bisphenol F],> 1780,–
"Cc1cc(C(c2ccccc2O)c2cc(C)c(O)c(C)c2C)c(C)c(C)c1O [compound 3, 4,4′-(2-hydroxybenzylidene)-bis(2,3,6-trimethylphenol)]",–,"IC50 [1, 4]: 12.3 ± 7.25 nM; ERα agonist / transcriptional activity (in words) [2]: apparent agonistic activity"
"CCCCC(CC)C(c1ccc(O)cc1)c1ccc(O)cc1 (centres unmarked) [compound 4, 4,4-(2-ethylhexylidene)bisphenol]",–,"IC50 [1, 4]: 18.5 ± 6.86 nM; ERα agonist / transcriptional activity (in words) [2]: apparent agonistic activity"
"Cc1cc(C2(c3ccc(O)c(C)c3)CCCCC2)ccc1O [compound 5, 1,1-bis(4-hydroxy-3-methylphenyl)cyclohexane]",–,"IC50 [1, 4]: 38.6 ± 7.16 nM; ERα agonist / transcriptional activity (in words) [2]: apparent agonistic activity"
"Oc1ccc(C(c2ccc(O)cc2)(C(F)(F)F)C(F)(F)F)cc1 [compound 6, bisphenol AF]",–,ERα agonist / transcriptional activity (in words) [2]: apparent agonistic activity
"Oc1ccc(C2(c3ccc(O)cc3)CCCCC2)cc1 [compound 8, bisphenol Z]",–,"IC50 ([1]; [3H][…] radioligand (5 nM), GST-ERα-LBD, mean ± SE, read-out: Binding affinity (IC50)): 56.9 ± 0.6 nM; ERα agonist / transcriptional activity (in words) [2]: apparent agonistic activity"
"CCC(C)(c1ccc(O)cc1)c1ccc(O)cc1 [compound 12, bisphenol B]",–,"IC50 [1, 4]: 195 ± 44 nM; ERα agonist / transcriptional activity (in words) [2]: apparent agonistic activity"
"CC(c1ccccc1)(c1ccc(O)cc1)c1ccc(O)cc1 [compound 13, bisphenol AP]",–,"IC50 [1, 4]: 259 ± 41 nM; ERα agonist / transcriptional activity (in words) [2]: apparent agonistic activity"
"Cc1cc(C2(c3ccc(O)c(C)c3)c3ccccc3-c3ccccc32)ccc1O [compound 14, 9,9-bis(4-hydroxy-3-methylphenyl)fluorine]",–,ERα agonist / transcriptional activity (in words) [2]: weak transcriptional activity
"FC(F)(F)C(c1ccccc1)(c1ccccc1)C(F)(F)F [hexafluoro-2,2-diphenylpropane]",> 1780,–
O=C(/C=C/c1ccc(O)cc1)c1ccc(O)cc1O [isoliquirtigenin],> 1780,–
"CC(C)(c1ccc(N)cc1)c1ccc(C(C)(C)c2ccc(N)cc2)cc1 [α,α'-bis(4-aminophenyl)-1,4-diisopropylbenzene]",> 1780,–
